Reference: US20210285031A1, “FRET BASED PROTEIN BIOSENSOR FOR DETECTION OF CYCLIC DINUCLEOTIDES” (University of Washington, priority 2020, published 2021)

Tests used:
[1] = target: Listeria monocytogenes Lmo0553, full length (Listeria monocytogenes, UniProt Q8Y9H5); assay: DRaCALA radioactive nucleotide binding assay, full length Lmo0553
STING = conditions: background; cited from earlier work
[2] = target: T1, CDA5 (eCFP-Lmo0553 Bateman domain (truncated at N-127)-eYFP FRET fusion; SEQ ID NO:36, Bateman domain SEQ ID NO:35) (Listeria monocytogenes, UniProt Q8Y9H5); assay: DRaCALA radioactive nucleotide binding assay, CDA5
[3] = target: T2, CDA5 variant Y34A (parent CDA5, Lmo0553 Bateman domain) (Listeria monocytogenes, UniProt Q8Y9H5, Y34A); assay: DRaCALA binding assay, CDA5 Y34A
Experimental: (§3) It was hypothesized that by replacing the stabilizing tyrosine ring with an alanine (Y34A), c-di-AMP binding would be minimized in a manner unlikely to disrupt protein stability. […] Next, increasing concentrations of c-di-AMP were added to purified CDA5 and Y34A CDA5 and analyzed by plate reader assay for FRET response.

[4] = target: T3, full length Lmo0553 fused to eCFP (N terminus) and eYFP (C terminus) (Listeria monocytogenes, UniProt Q8Y9H5); assay: FRET response, full length Lmo0553 fusion; format: biochemical
T3 construct: recombinant, purified
Excerpt: To leverage these structural rearrangements, the FRET pair eCFP and eYFP were respectively fused to the N and C termini of full length Lmo0553. […] Additional engineering may have allowed for the generation of a FRET biosensor utilizing full length Lmo0553, but without a response to optimize, these efforts would have been arduous and potentially unsuccessful.

[5] = target: T1, CDA5 (eCFP-Lmo0553 Bateman domain (truncated at N-127)-eYFP FRET fusion; SEQ ID NO:36, Bateman domain SEQ ID NO:35); assay: In vitro FRET measurement, CDA5
[6] = target: T2, CDA5 variant Y34A (parent CDA5, Lmo0553 Bateman domain); assay: In vitro FRET measurement, CDA5 Y34A; conditions: increasing concentrations of c-di-AMP
Experimental: as §3

BioSTING = target: T4, BioSTING (Mus musculus, UniProt Q3TBT3); assay: DRaCALA binding specificity: excess unlabeled nucleotides competing with [32P] 2′3′-cGAMP; design: species or system murine; conditions: 500 μM excess unlabeled nucleotide, ~1 nM [32P] 2′3′-cGAMP
T4 construct: made in house; host or cells: E. coli Rosetta (DE3)pLysS
T4 sequence (Q3TBT3 with tags, fused parts or gaps): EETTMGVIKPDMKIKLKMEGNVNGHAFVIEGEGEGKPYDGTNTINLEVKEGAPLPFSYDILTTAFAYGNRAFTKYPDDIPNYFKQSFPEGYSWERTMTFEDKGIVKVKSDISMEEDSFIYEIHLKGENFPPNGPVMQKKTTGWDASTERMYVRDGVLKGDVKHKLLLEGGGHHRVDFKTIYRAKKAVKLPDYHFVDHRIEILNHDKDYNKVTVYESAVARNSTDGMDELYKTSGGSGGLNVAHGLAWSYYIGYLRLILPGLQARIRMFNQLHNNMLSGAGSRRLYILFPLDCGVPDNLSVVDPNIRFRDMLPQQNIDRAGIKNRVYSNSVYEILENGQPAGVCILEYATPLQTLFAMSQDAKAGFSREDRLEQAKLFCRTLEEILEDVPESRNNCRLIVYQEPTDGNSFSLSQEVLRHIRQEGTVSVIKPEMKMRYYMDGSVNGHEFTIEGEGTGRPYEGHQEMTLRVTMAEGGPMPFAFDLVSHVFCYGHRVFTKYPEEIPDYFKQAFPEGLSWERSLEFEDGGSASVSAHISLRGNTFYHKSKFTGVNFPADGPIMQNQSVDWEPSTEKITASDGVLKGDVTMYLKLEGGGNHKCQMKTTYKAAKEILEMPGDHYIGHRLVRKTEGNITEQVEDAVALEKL

[7] = target: T5, BioSTING (mTFP-GGSGG-murine STING CTD (L152-E335)-mKO2 FRET fusion; SEQ ID NO:34, CDN binding domain SEQ ID NO:33) (Mus musculus, UniProt Q3TBT3); assay: DRaCALA radioactive nucleotide binding assay, BioSTING; conditions: 500 μM unlabeled nucleotide, ~1 nM [32P] 2′3′-cGAMP
T5 construct: His tag (inferred from Ni-NTA purification and the pET15b vector); made in house; host or cells: E. coli Rosetta (DE3)pLysS
T5 sequence (Q3TBT3 with tags, fused parts or gaps): T4 sequence (Q3TBT3 with tags, fused parts or gaps)
Excerpt: (§1) FIGS. 1A-1H. BioSTING Design and Optimization. (1A) Schematic representation of full-length STING (top) and BioSTING with additional GGSGG linker between mTFP and STING-CTD (bottom). Abbreviations are defined as follows: TM (transmembrane region), DD (dimerization domain), CBD (CDN binding domain), and CTT (C-terminal tail). (1B) Overlay and structural alignment of human STING CTD in apo (“blue”) and c-di-GMP bound (“gray”) states (PDB 4F5E and 4F5D, respectively). […] The N and C-terminal helices of the CTD are highlighted with the terminal residues in red and their associated displacement following ligand binding labeled in angstroms. (1C) Model of the FRET increase which occurs upon CDN binding. Generated with Biorender.com. […] In all panels, individual data points of n=2 biological replicates are shown.
(§2) Finally, the dissociation kinetics were monitored by determining the rate that cold nucleotide could compete off bound radioactive nucleotide. […] [^32P] […] Binding assays were performed in binding buffer [40 mM Tris pH 7.5, 100 mM NaCl, 20 mM MgCl2] at room temperature.

[8] = target: T6, murine STING CTD (mSTING-CTD; CDN binding domain SEQ ID NO:33) (Mus musculus, UniProt Q3TBT3); assay: DRaCALA radioactive nucleotide binding assay, STING-CTD; conditions: 500 μM unlabeled nucleotide, ~1 nM [32P] 2′3′-cGAMP
T6 construct: 6xHis; made in house; host or cells: E. coli Rosetta (DE3)pLysS
T6 sequence (Q3TBT3 134-378 limits assumed): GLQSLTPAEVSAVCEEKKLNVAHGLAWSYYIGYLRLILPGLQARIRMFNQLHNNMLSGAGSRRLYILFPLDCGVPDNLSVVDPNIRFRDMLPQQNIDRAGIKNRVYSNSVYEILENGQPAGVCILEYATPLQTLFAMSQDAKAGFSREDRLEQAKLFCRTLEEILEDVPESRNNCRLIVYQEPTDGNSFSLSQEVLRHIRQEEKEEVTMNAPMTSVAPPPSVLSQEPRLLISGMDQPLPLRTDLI
Excerpt: as §1
FIGS. 6A and 6B. BioSTING development and characterization.
as §2

cGAS = conditions: literature value (Pfizer); read-out: reported IC50; cited from earlier work
[9] = target: T7, cGAS (recombinant SUMO-mcGAS) (Mus musculus, UniProt Q8C6L5); assay: cGAS activity assay measuring 2′3′-cGAMP production using BioSTING; format: biochemical; conditions: fixed cGAS; 250 μM ATP, 250 μM GTP, 50 ng ISD; 37° C.
T7 construct: product read by BioSTING
Experimental: FIGS. 2A-2F. Real time measurement of CDN synthesis and determination of CDN levels from cellular extracts. […]. In panels (2B)-(2D) and (2F), data are presented as mean±s.d. of n=3 (2B, 2F) or n=8 (2C, 2D) biological replicates.
BioSTING FRET assays are carried out in a 96-well format using a fluorescent plate reader making it amenable to in vitro high throughput screening efforts (FIG. 7B). […]. In addition to screening for modulators of CDN synthase activity, BioSTING could also potentially be used to screen directly for STING agonists and antagonists.
Enzyme assays were initiated by the addition of 1 mM ATP, 1 mM GTP and 1 μg ISD (FIGS. 2B, 7A, and 7B) or by the addition of 250 μM ATP, 250 μM GTP, and 50 ng ISD (FIGS. 2C, 2D, and 7C).

[10] = excess (500 μM) unlabeled c-di-AMP, DRaCALA

T7 sequence (Q8C6L5 whole entry): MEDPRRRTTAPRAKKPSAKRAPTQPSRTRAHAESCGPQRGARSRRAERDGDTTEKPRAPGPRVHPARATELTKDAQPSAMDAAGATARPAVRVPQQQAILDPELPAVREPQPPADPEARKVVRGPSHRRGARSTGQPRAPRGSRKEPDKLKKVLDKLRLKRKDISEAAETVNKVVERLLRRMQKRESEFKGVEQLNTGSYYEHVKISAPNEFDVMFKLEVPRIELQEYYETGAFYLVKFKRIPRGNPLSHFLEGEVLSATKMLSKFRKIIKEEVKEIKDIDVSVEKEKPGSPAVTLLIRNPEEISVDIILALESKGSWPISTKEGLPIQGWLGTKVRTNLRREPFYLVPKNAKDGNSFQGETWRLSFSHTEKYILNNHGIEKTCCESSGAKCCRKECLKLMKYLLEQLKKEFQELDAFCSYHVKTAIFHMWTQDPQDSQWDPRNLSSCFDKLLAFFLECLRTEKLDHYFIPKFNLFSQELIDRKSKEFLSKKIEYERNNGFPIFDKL

## Nc1ncnc2c1ncn2[C@@H]1O[C@@H]2COP(=O)(O)O[C@H]3[C@@H](O)[C@H](n4cnc5c(N)ncnc54)O[C@@H]3COP(=O)(O)O[C@H]2[C@H]1O [3′3′-c-di-AMP, 3′3′-cyclic di-adenosine monophosphate]
[1]
  Kd: 4.83 µM
  competition of bound [32P] c-di-AMP by unlabeled nucleotide: only unlabeled c-di-AMP
[1]; [10]
  koff (time for competition by unlabeled c-di-AMP): completely within two seconds
STING
  affinity for STING relative to 2′3′-cGAMP: markedly reduced affinities
[2]
  Kd: 5.87 µM
  competition of bound [32P] c-di-AMP by unlabeled nucleotide: only unlabeled c-di-AMP
[2]; [10]
  koff (time for competition by unlabeled c-di-AMP): completely within two seconds
[3]
  c-di-AMP binding: c-di-AMP bound to CDA5 but not the Y34A CDA5 point mutant control
[4]
  FRET response upon the addition of c-di-AMP: no FRET response was observed
[5]
  EC50: 0.38 µM
[5]; FRET responses stable immediately upon addition of c-di-AMP
  kon (less than the sampling limit): < 10 s
[5]; read-out: FRET increase
  Emax: 23%
[6]
  FRET increase upon the addition of c-di-AMP: CDA5 but not Y34A CDA5 produced a robust FRET increase

## Nc1nc2c(ncn2[C@@H]2O[C@@H]3COP(=O)(O)O[C@H]4[C@@H](O)[C@H](n5cnc6c(N)ncnc65)O[C@@H]4COP(=O)(O)O[C@H]3[C@H]2O)c(=O)[nH]1 [3′3′-cGAMP, 3′,3′-cyclic GMP AMP]
STING
  affinity for STING relative to 2′3′-cGAMP: markedly reduced affinities

## Nc1nc2c(ncn2[C@@H]2O[C@H](COP(=O)(O)OP(=O)(O)OP(=O)(O)O)[C@@H](O)[C@H]2O)c(=O)[nH]1 [GTP]
BioSTING
  competing off bound [32P] 2′3′-cGAMP: not
[7]
  competition of bound [32P] 2′3′-cGAMP by unlabeled nucleotide: not ATP, GTP, cAMP, or cGMP could compete off
[8]
  competition of bound [32P] 2′3′-cGAMP by unlabeled nucleotide: not ATP, GTP, cAMP, or cGMP could compete off

## Nc1ncnc2c1ncn2[C@@H]1O[C@H](COP(=O)(O)OP(=O)(O)OP(=O)(O)O)[C@@H](O)[C@H]1O [ATP]
BioSTING
  competing off bound [32P] 2′3′-cGAMP: not
[7]
  competition of bound [32P] 2′3′-cGAMP by unlabeled nucleotide: not ATP, GTP, cAMP, or cGMP could compete off
[8]
  competition of bound [32P] 2′3′-cGAMP by unlabeled nucleotide: not ATP, GTP, cAMP, or cGMP could compete off

## O=C(NC1CCCCC1C(=O)O)c1cnn2c(O)cc(-c3ccccc3)nc12 (centres unmarked) [PF-06928215]
cGAS
  IC50: 5 µM
[9]
  IC50: ~12 µM

## Nc1nc2c(ncn2[C@@H]2O[C@@H]3COP(=O)(O)O[C@H]4[C@@H](O)[C@H](n5cnc6c(=O)[nH]c(N)nc65)O[C@@H]4COP(=O)(O)O[C@H]3[C@H]2O)c(=O)[nH]1 [c-di-GMP, 3′,3′-cyclic di-GMP]
STING
  affinity for STING relative to 2′3′-cGAMP: markedly reduced affinities

## Nc1nc2c(ncn2[C@@H]2O[C@@H]3COP(=O)(O)O[C@H]3[C@H]2O)c(=O)[nH]1 [cGMP]
BioSTING
  competing off bound [32P] 2′3′-cGAMP: not
[7]
  competition of bound [32P] 2′3′-cGAMP by unlabeled nucleotide: not ATP, GTP, cAMP, or cGMP could compete off
[8]
  competition of bound [32P] 2′3′-cGAMP by unlabeled nucleotide: not ATP, GTP, cAMP, or cGMP could compete off
